Experimental data reported in publication PMC4077652, “An Unstable Th Epitope of P. falciparum Fosters Central Memory T Cells and Anti-CS Antibody Responses” (PLoS ONE, 2014).
Read-outs that look alike come from different tables or passages of the source. Where no end group is shown, it is not given here.

Tests used:
HLA-DRβ1*04:01 (DR4) [1] = molecular target: T1, HLA-DRβ1*04:01 (DR4) (Homo sapiens, UniProt P01903+P01911, A100K/A169T/F76Y/I96L/K127E/L162R/M171V/N62H/P40V/Q125Y/R42H/S133A/S149N/S66Y/V115G/V209L/W38E); test: biochemical; format: binding
HLA-DRβ1*04:01 (DR4) [2] = molecular target: T1, HLA-DRβ1*04:01 (DR4); test: biochemical; format: binding; remark: listed apart in the source
HLA-DR4 = HLA-DR4 (Homo sapiens, UniProt P01903+P01911, A100K/A169T/F76Y/I96L/K127E/L162R/M171V/N62H/P40V/Q125Y/R42H/S133A/S149N/S66Y/V115G/V209L/W38E); settings: binding to HLA-DR4, previously reported; read-out: IC50, competition binding assay; cited from earlier work
[3] = IC50, competition binding assay

| Compound | IC50 (HLA-DRβ1*04:01 (DR4) [1]) [µM] | also measured |
| --- | --- | --- |
| CC(C)[C@H](NC(=O)[C@H](CC(N)=O)NC(=O)[C@@H]1CCCN1C(=O)[C@H](CC(N)=O)NC(=O)[C@H](C)NC(=O)[C@H](CC(N)=O)NC(=O)[C@@H]1CCCN1C(=O)[C@H](CC(=O)O)NC(=O)[C@@H](NC(=O)[C@H](CC(N)=O)NC(=O)[C@@H]1CCCN1C(=O)[C@H](CC(N)=O)NC(=O)[C@H](C)NC(=O)[C@H](CC(N)=O)NC(=O)[C@@H]1CCCN1C(=O)[C@@H](N)CC(=O)O)C(C)C)C(=O)O [T1, reference compound] | – | IC50 (HLA-DRβ1*04:01 (DR4) [1]; IC50, binding to DRβ1*04:01): ~18 µM |
| Ac-ANSLSTEWSPCSVT-NH2 [Q332A] | 1.19 | – |
| Ac-LSTEWSPCS-NH2 [QN-335-343] | 75.8 | – |
| Ac-QASLSTEWSPCSVT-NH2 [N333A] | 2.65 | – |
| Ac-QNALSTEWSPCSVT-NH2 [S334A] | 1.14 | – |
| Ac-QNSASTEWSPCSVT-NH2 [L335A] | 68.4 | – |
| Ac-QNSLATEWSPCSVT-NH2 [S336A] | 0.91 | – |
| Ac-QNSLSAEWSPCSVT-NH2 [T337A] | 1.3 | – |
| Ac-QNSLSTAWSPCSVT-NH2 [E338A] | 3.4 | – |
| Ac-QNSLSTEASPCSVT-NH2 [W339A] | 1.42 | – |
| Ac-QNSLSTEWAPCSVT-NH2 [S340A] | 24.6 | – |
| Ac-QNSLSTEWSACSVT-NH2 [P341A] | 7.75 | – |
| Ac-QNSLSTEWSPASVT-NH2 [C342A] | 0.73 | – |
| Ac-QNSLSTEWSPCAVT-NH2 [S343A] | 0.7 | – |
| Ac-QNSLSTEWSPCS-NH2 [QN-332-343] | 5.58 | – |
| Ac-QNSLSTEWSPCSAT-NH2 [V344A] | 0.44 | – |
| Ac-QNSLSTEWSPCSVA-NH2 [T345A] | 0.71 | – |
| Ac-SLSTEWSPCSVT-NH2 [QN-334-345] | 2.82 | – |
| Ac-STEWSPCS-NH2 [QN-336-343] | 6740 | – |
| QNSLSTEWSPCSVT [QNT-5] | – | Kd (HLA-DRβ1*04:01 (DR4) [2]; apparent equilibrium binding affinity, […], DR-ELISA, read-out: Kd (nM) DM+): 714.1 ± 3.9 nM; Kd (HLA-DRβ1*04:01 (DR4) [2]; apparent equilibrium binding affinity, […], DR-ELISA, read-out: Kd (nM) DM-): 504 ± 86.2 nM; IC50 (HLA-DRβ1*04:01 (DR4) [1]; IC50 (quoted from Table 2)): ~0.025 µM; IC50 (HLA-DRβ1*04:01 (DR4) [1]; [3]): ~1.7 µM; IC50 (HLA-DRβ1*04:01 (DR4) [1]; IC50 range values (95% C.I.)): 1.53 to 1.85 µM |
| QNSYSTEWSPCSVT [QNT-Y] | – | Kd (HLA-DRβ1*04:01 (DR4) [2]; Kd (nM) DM+): 35.7 ± 20.5 nM; Kd (HLA-DRβ1*04:01 (DR4) [2]; Kd (nM) DM-): 25.5 ± 10.7 nM; IC50 (HLA-DRβ1*04:01 (DR4) [1]; IC50 (quoted from Table 2)): ~0.5 µM; IC50 (HLA-DRβ1*04:01 (DR4) [1]; [3]): ~0.13 µM; IC50 (HLA-DRβ1*04:01 (DR4) [1]; IC50 range values (95% C.I.)): 0.124 to 0.14 µM |
| SLSTEWSPCSV [T*-5] | – | IC50 (HLA-DR4): 0.9 µM |
